Laboratory results as given in US20210267203A1, “PESTICIDALLY ACTIVE AZOLE-AMIDE COMPOUNDS” (SYNGENTA PARTICIPATIONS AG, priority 2018, published 2021).

What was measured:
Type in all cases: in vivo
[1] = system: Tetranychus urticae (Two-Spotted Spider Mite); test: Example B11: Tetranychus urticae (two-spotted spider mite), feeding/contact activity; settings: 192 h, application rate 200 ppm, mixed population (mobile stages), 8 days after infestation
Protocol: Example B11: Tetranychus urticae (Two-Spotted Spider Mite):Feeding/Contact Activity
Bean leaf discs on agar in 24-well microtiter plates were sprayed with aqueous test solutions prepared from 10,000 ppm DMSO stock solutions. After drying the leaf discs were infested with a mite population of mixed ages. The samples were assessed for mortality on mixed population (mobile stages) 8 days after infestation.

[2] = system: Euschistus heros (Neotropical Brown Stink Bug); test: Example B2: Euschistus heros (neotropical brown stink bug), soybean leaves sprayed, N2 nymphs; settings: 120 h, application rate 200 ppm, 5 days after infestation, read-out: effect in at least one of the two categories (mortality or growth inhibition)
How it was run: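 Soybean leaves on agar sprayed with aqueous test solutions made from 10,000 ppm DMSO stocks, dried, then infested with N2 nymphs. Mortality and growth inhibition scored versus untreated samples 5 days after infestation; activity threshold at 200 ppm.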

[3] = system: Myzus persicae (Green Peach Aphid); test: Example B8: Myzus persicae (green peach aphid), intrinsic activity; settings: 120 h, test rate 12 ppm, sucrose solution, 24-well, 5 days after infestation
How it was run: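 Compounds diluted from 10,000 ppm DMSO stock were mixed with sucrose solution under stretched Parafilm in a sachet feeding setup, with aphid-infested pea seedlings placed on the membrane. Mortality was scored 5 days after infestation.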

[4] = system: Myzus persicae (Green Peach Aphid); test: Example B7: Myzus persicae (green peach aphid), systemic activity; settings: 144 h, test rate 24 ppm, pea seedling roots in test solution, 6 days
Protocol: Example B7: Myzus persicae (Green Peach Aphid), Systemic Activity
Roots of pea seedlings infested with an aphid population of mixed ages were placed directly into aqueous test solutions prepared from 10,000 DMSO stock solutions. The samples were assessed for mortality 6 days after placing seedlings into test solutions.

[5] = system: Plutella xylostella (Diamond Back Moth); test: Example B5: Plutella xylostella (diamond back moth), artificial diet, 24-well, eggs; settings: 192 h, application rate 200 ppm, 8 days after infestation, read-out: effect in at least one of the two categories (mortality or growth inhibition)
How it was run: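 Artificial diet in 24-well plates treated with aqueous dilutions of 10,000 ppm DMSO stocks, dried, then infested with Plutella eggs. Mortality and growth inhibition scored against untreated samples 8 days after infestation; activity rated at 200 ppm application rate.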

[6] = system: Diabrotica Balteata (Corn Root Worm); test: Example B1: Diabrotica balteata (corn root worm), maize sprouts sprayed, L2 larvae; settings: 96 h, application rate 200 ppm, 4 days after infestation, read-out: effect in at least one of the two categories (mortality or growth inhibition)
How it was run: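 Maize sprouts on agar sprayed with aqueous dilutions of 10,000 ppm DMSO stocks, dried, then infested with 6–10 L2 larvae per well. Mortality and growth inhibition scored against untreated samples 4 days after infestation; rates of 200 ppm.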

[7] = system: Plutella xylostella (Diamondback Moth); test: Example B14: activity against Plutella xylostella (diamondback moth), 96-well artificial diet; settings: 216 h, application rate 500 ppm, 9 days after infestation
How it was run: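 Diet in 96-well plates was treated with aqueous dilutions of 10,000 ppm DMSO stocks, dried, and infested with 30 eggs per well via a netted lid; hatching L1 larvae fed on the diet. Mortality scored 9 days after infestation.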

[8] = system: Myzus persicae (Green Peach Aphid); test: Example B6: Myzus persicae (green peach aphid), feeding/contact activity; settings: 144 h, application rate 200 ppm, 6 days after infestation
Protocol: Example B6: Myzus persicae (Green Peach Aphid):Feeding/Contact Activity
Sunflower leaf discs were placed onto agar in a 24-well microtiter plate and sprayed with aqueous test solutions prepared from 10,000 ppm DMSO stock solutions. After drying, the leaf discs were infested with an aphid population of mixed ages. The samples were assessed for mortality 6 days after infestation.

[9] = system: Myzus persicae (Green Peach Aphid); test: Example B13: activity against Myzus persicae (green peach aphid), 96-well sucrose solution; settings: 120 h, application rate 50 ppm, 5 days after infestation
How it was run: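 Compounds, from 10,000 ppm DMSO stocks, mixed into sucrose solution in wells under stretched Parafilm, with aphids placed on the membrane in an inverted feeding setup. Mortality scored 5 days after infestation.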

[10] = system: Thrips tabaci (Onion Thrips); test: Example B12: Thrips tabaci (onion thrips), feeding/contact activity; settings: 144 h, application rate 200 ppm, mixed ages, 6 days after infestation
Protocol: Example B12: Thrips tabaci (Onion Thrips) Feeding/Contact Activity
Sunflower leaf discs were placed on agar in 24-well microtiter plates and sprayed with aqueous test solutions prepared from 10,000 ppm DMSO stock solutions. After drying the leaf discs were infested with a thrips population of mixed ages. The samples were assessed for mortality 6 days after infestation.

[11] = system: Spodoptera littoralis (Egyptian Cotton Leaf Worm); test: Example B9: Spodoptera littoralis (Egyptian cotton leaf worm), cotton leaf discs sprayed, L1 larvae; settings: foliar, 72 h, application rate 200 ppm, 3 days after infestation
How it was run: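 Leaf discs on agar sprayed with aqueous dilutions from 10,000 ppm DMSO stock, dried, then infested with five L1 larvae. Mortality, anti-feeding and growth inhibition scored against untreated samples 3 days after infestation; control counted when any category exceeds untreated.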

[12] = system: Chilo suppressalis (Striped Rice Stemborer); test: Example B4: Chilo suppressalis (striped rice stemborer), artificial diet, L2 larvae; settings: 144 h, application rate 200 ppm, 6 days after infestation
How it was run: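 L2 larvae (6-8 per well) placed on artificial diet treated with aqueous test solutions prepared from 10,000 ppm DMSO stocks, after drying. Mortality, anti-feeding and growth inhibition scored against untreated samples 6 days after infestation; control means at least one category exceeds untreated.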

[13] = system: Frankliniella occidentalis (Western Flower Thrips); test: Example B3: Frankliniella occidentalis (western flower thrips), feeding/contact activity; settings: 168 h, application rate 200 ppm, mixed ages, 7 days after infestation
Protocol: Example B3: Frankliniella occidentalis (Western Flower Thrips):Feeding/Contact Activity
Sunflower leaf discs were placed on agar in 24-well microtiter plates and sprayed with aqueous test solutions prepared from 10,000 DMSO stock solutions. After drying the leaf discs were infested with a Frankliniella population of mixed ages. The samples were assessed for mortality 7 days after infestation.

CC(c1ncnn1-c1ncccn1)N(CC1CC1)C(=O)c1cc(C(F)(F)F)cc(S(C)(=O)=O)c1 (stereo not drawn) [P34, N-(cyclopropylmethyl)-3-methylsulfonyl-N-[1-(2-pyrimidin-2-yl-1,2,4-triazol-3-yl)ethyl]-5-(trifluoromethyl)benzamide]
≥ 80%: mortality at 200 ppm [1] | percent effect (mortality or growth inhibition) at 200 ppm [2] | mortality at 12 ppm [3] | mortality at 24 ppm [4] | percent effect (mortality or growth inhibition) at 200 ppm [5] | percent effect (mortality or growth inhibition) at 200 ppm [6] | mortality at 500 ppm [7] | mortality at 200 ppm [8] | mortality at 50 ppm [9] | mortality at 200 ppm [10]

Cc1nc(C(C)NC(=O)c2cc(C(F)(F)F)cc(C3(C#N)CC3)c2)n(-c2ncccn2)n1 (stereo not drawn) [P83, 3-(1-cyanocyclopropyl)-N-[1-(5-methyl-2-pyrimidin-2-yl-1,2,4-triazol-3-yl)ethyl]-5-(trifluoromethyl)benzamide]
≥ 80%: mortality at 200 ppm [1] | percent control (mortality, anti-feedant effect or growth inhibition) at 200 ppm [11] | percent effect (mortality or growth inhibition) at 200 ppm [2] | mortality at 12 ppm [3] | mortality at 24 ppm [4] | percent effect (mortality or growth inhibition) at 200 ppm [5] | percent control (mortality, anti-feedant effect or growth inhibition) at 200 ppm [12] | percent effect (mortality or growth inhibition) at 200 ppm [6] | mortality at 200 ppm [13] | mortality at 200 ppm [8] | mortality at 50 ppm [9]
